This note sets out measurements from US8765713B2, “Method for determination of sensitivity to anti-cancer agent” (Keio University, priority 2009, dated 2014).

In series [1] the test system is DLD-1 cells. Briefly: MTS assay cell viability after drug exposure, DLD-1. For orientation: Tetrazolium dyes change colour on reduction, which living cells bring about.
Method: (§2) Two human colorectal cancer cell lines (HCT116 and DLD-1) were obtained from ECACC. Cell culturing was performed by means of a φ000 mm/Tissue Culture Dish (IWAKI) with a medium (D-MEM, 2 mM glutamine, 10% fetal bovine serum) at 37° C. under 5% CO2.
(§3) Two colorectal cancer cell lines (HCT116 and DLD-1) were exposed to a drug, and 24 hours and 48 hours after drug exposure, cell viability was determined by means of an MTS assay (CellTiter96™AQueous One Solution Cell Proliferation Assay, Promega). Drug exposure conditions were as follows. 5-FU (single agent) was used at the following 11 concentrations: control (0 μM), 0.001 μM, 0.01 μM, 0.1 μM, 1 μM, 3 μM, 10 μM, 30 μM, 100 μM, 1,000 μM, and 10,000 μM. L-OHP (single agent) was used at the following 11 concentrations; control (0 μM), 0.001 μM, 0.01 μM, 0.1 μM, 0.3 μM, 1 μM, 3 μM, 10 μM, 30 μM, 100 μM, and 1,000 μM. […]
(§4) Sensitivity analysis was performed from viability data calculated from MTS assay results. The presence or absence of combined effect was determined through comparison of viability obtained by exposure to a combination with that obtained by exposure to a single agent at the same concentration as employed at the exposure to the combination.
Series [2] concerns HCT116 cells. Briefly: MTS assay cell viability after drug exposure, HCT116.
Method: as §2, §3, §4
Series [3] has as its system HCT116 cells. Put plainly: Intracellular protein level after drug exposure by SELDI-TOF MS, HCT116. The settings on record: 4 to 48 hours. The class given is cell-based, human. On the procedure: (§1) Based on the results of (c) above, the drug concentration employed in the exposure test was determined. The 5-FU+L-OHP combination concentration was adjusted to the following four levels: 2 μ[…], and 100 μM+10 μM, the 5-FU concentration (exposure to single agent) was adjusted to 2 μM and 100 μM, and the L-OHP concentration (exposure to single agent) was adjusted to 1 μM and 10 μM. In addition, the exposure test was conducted at a drug-free concentration (control). That is, nine concentrations in total were employed. Drug exposure time was adjusted to the following five periods of time: 0 hour (just before exposure), 4 hours, 12 hours, 24 hours, and 48 hours. After completion of exposure, cell count was performed, and intracellular proteins were extracted. The medium was removed from the dish and washed thrice with ice-cooled PBS. The cells on the dish was collected by scraping with a rubber policeman. The thus-obtained cell suspension was transferred to a 1.5-mL microtube. The cell suspension was centrifuged at 4° C. and 1,200×g for 10 minutes, and the cells were recovered. After removal of the supernatant, a cell lysis buffer (9 mol/L urea, 2% CHAPS, 1 mM DTT, protease-inhibitor cocktail (Sigma)) was added in a volume of 200 μL with respect to 10,000,000 cells. The liquid was subjected to untrasonic treatment under cooling with ice. The thus-treated product was centrifuged at 4° C. and 16,000×g for 20 minutes, and the supernatant was quickly frozen with liquid nitrogen. The frozen product was stored at -80° C. before analysis. An aliquot of the supernatant was subjected to protein quantification (DC Protein Assay Kit, Bio-Rad). The protein sample was mixed with a cell lysis buffer (excluding protease inhibitor), to thereby adjust the protein concentration to 2.5 mg/mL. The liquid was further mixed with a dilution/washing buffer (pH: 4.5, 50 mM sodium acetate buffer) (hereinafter referred to simply as “buffer”), to a protein concentration of 0.5 mg/mL. The thus-prepared sample (100 μL) was applied to spots of a cation-exchange ProteinChip array (CM10, Bio-Rad) which had been conditioned in advance with the same buffer. Incubation was performed for one hour for reaction, and the chip array was washed thrice with the buffer and rinsed twice with milliQ water, followed by drying in air. Energy absorbing molecule (EAM: saturated solution of sinapinic acid in 50% ACN/0.5% TFA) (1.0 μL ([…])) was added to each spot. After the surface of the spot was dried, analysis of the ProteinChip array was performed. […] As an analyzer, ProteinChipTM Reader (Model PCS4000 Personal Edition, Bio-Rad) was used and the analysis was performed under the following conditions: mass range of 0 to 70,000 Da, focus mass of 8,000 Da, energy of 3,000 or 4,000 nJ, and 265 shots/sample. […]

Series [4] concerns DLD-1 cells. Briefly: Intracellular protein level after drug exposure by SELDI-TOF MS, DLD-1. Type of series: cell-based, human. The settings on record: DLD-1, SELDI-TOF MS, 4 to 48 hours. On the procedure:
as §1

As usually defined, the viability is a read-out of living cells in per cent, often relative to untreated cells. In the case of `O=c1[nH]cc(F)c(=O)[nH]1` [5-FU, Fluorouracil], the viability at 100 µM in the series with DLD-1 cells [1] (Homo sapiens, DLD-1, 48 h, read-out: cell viability) was ~49%; in the series with HCT116 cells [2] (Homo sapiens, HCT-116, 48 h, read-out: cell viability) it was ~24%. Further, the “levels of proteins A to C, F, and H to K after exposure” value was “no significant difference” with HCT116 cells [3] and “increase” with DLD-1 cells [4]. The “levels of proteins D and M after exposure” value is “decrease” in the series on HCT116 cells [3] and “no significant difference” in the series with DLD-1 cells [4].

For the compound `O=C1[O][Pt]2([NH][C@@H]3CCCC[C@H]3[NH]2)[O]C1=O` [L-OHP, (SP-4-2)-[(1R,2R)-cyclohexane-1,2-diamine-κN,κN′][ethanedioato(2-)-κO^1,κO^2]platinum], the cell viability result in the series on DLD-1 cells [1] (DLD-1, 1 μM L-OHP, 48 hours) was “about 82%”; in the series on HCT116 cells [2] (HCT116, 1 μM L-OHP, 48 hours) it was “about 37%”. For the same compound, the “levels of proteins A to C and G to K after exposure” value with HCT116 cells [3] is given as “no significant difference”; with DLD-1 cells [4], “increase”. For the same compound, the “levels of proteins D and M after exposure” value in the series on HCT116 cells [3] is “decrease”; in the series with DLD-1 cells [4] it was “no significant difference”.
